{"source": "patent US20240285571A1", "about": "“METHODS OF TREATING BONE INFECTIONS” (MICROBION CORPORATION, priority 2020, published 2024)", "key": {"E. coli": {"test_system": "E. coli", "test": "Broth microdilution MIC (Example 5)", "assay_type": "cell-based, Escherichia coli", "conditions": "Escherichia coli", "procedure": "(§1) Test and Comparator Agents: The test agents were stored at room temperature until assayed. […] The stock solutions were allowed to stand for at least 1 hr prior to use to auto-sterilize.\n(§2) TestMedia: Test media were prepared and stored in accordance with guidelines from CLSI (4, 6, 7).\n(§3) Broth Microdilution MC Testing (Aerobic Bacteria and Yeast): The broth microdilution assay method employed for the susceptibility testing of aerobic bacteria (excluding N. gonorrhoeae which was evaluated by agar dilution) and yeast essentially followed the procedures described by CLSI (3, 4, 7, 8) and employed automated liquid handlers to conduct serial dilutions and liquid transfers. […] These would become the ‘mother plates’ from which ‘daughter’ or test plates would be prepared. The drugs (300 μL at 40× the desired top concentration in the test plates) were dispensed into the appropriate well in Column 1 of the mother plates. The Biomek 2000 was used to make serial two-fold dilutions through Column 11 in the “mother plate”. The wells of Column 12 contained no drug and ultimately served as the organism growth control wells.\n(§4) The daughter plates were prepared using the Biomek FX which transferred 5 μL of drug solution from each well of a mother plate to the corresponding well of the correct daughter plate in a single step.\n(§5) A standardized inoculum of each organism was prepared per CLSI methods (3, 7). Isolated colonies of each test isolate were picked from the primary plate and a suspension was prepared to equal a 0.5 McFarland turbidity standard. Standardized suspensions were then diluted […] (1:100 for yeast, 1:20 for bacteria). After dilution, the inoculum suspensions were then transferred to compartments of sterile reservoirs divided by length (Beckman Coulter), and the Biomek 2000 was used to inoculate all plates. Daughter plates were placed on the Biomek 2000 in reverse orientation so that plates were inoculated from low to high drug concentration.\n(§6) The Biomek 2000 delivered 10 μL of standardized inoculum into each well of the appropriate daughter plate for an additional 1:20 dilution.\n(§7) Plates were stacked 4 high, covered with a lid on the top plate, placed into plastic bags, and incubated at 35° C. for approximately 24-48 hr for all yeast isolates and 16-24 hr for aerobic bacteria. Plates were viewed from the bottom using a plate viewer. […] MIC endpoints for the test agents and control compounds were read per CLSI criteria (3, 7)."}, "K. pneumoniae": {"test_system": "K. pneumoniae", "test": "Broth microdilution MIC (Example 5)", "assay_type": "cell-based, Klebsiella pneumoniae", "conditions": "Klebsiella pneumoniae", "procedure": "as §1, §2, §3, §4, §5, §6, §7"}, "E. cloacae": {"test_system": "E. cloacae", "test": "Broth microdilution MIC (Example 5)", "assay_type": "cell-based, Enterobacter cloacae", "conditions": "Enterobacter cloacae, ATCCBAA2468", "procedure": "as §1, §2\nBroth Microdilution MC Testing (Aerobic Bacteria and Yeast): The broth microdilution assay method employed for the susceptibility testing of aerobic bacteria (excluding N. gonorrhoeae which was evaluated by agar dilution) and yeast essentially followed the procedures described by CLSI (3, 4, 7, 8) and employed automated liquid handlers to conduct serial dilutions and liquid transfers. […] These would become the ‘mother plates’ from which ‘daughter’ or test plates would be prepared. The drugs (300 μL at 40× the desired top concentration in the test plates) were dispensed into the appropriate well in Column 1 of the mother plates. The Biomek 2000 was used to make serial two-fold dilutions through Column 11 in the “mother plate”. […]\n(§8) Plates were stacked 4 high, covered with a lid on the top plate, placed into plastic bags, and incubated at 35° C. for approximately 24-48 hr for all yeast isolates and 16-24 hr for aerobic bacteria. […] MIC endpoints for the test agents and control compounds were read per CLSI criteria (3, 7)."}, "S. agalactiae": {"test_system": "S. agalactiae", "test": "Broth microdilution MIC (Example 5)", "assay_type": "cell-based", "conditions": "Streptococcus agalactiae", "summary_of_the_method": "(§9)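 CLSI broth microdilution; two-fold serial dilutions, drug-free growth-control wells. Inoculum 0.5 McFarland, diluted 1:20 in media, then a further 1:20 in wells.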"}, "S. pyogenes": {"test_system": "S. pyogenes", "test": "Broth microdilution MIC (Example 5)", "assay_type": "cell-based", "conditions": "Streptococcus pyogenes", "summary_of_the_method": "as §9"}, "Enterobacteriaceae": {"test_system": "Enterobacteriaceae", "test": "MIC summary across Enterobacteriaceae (Example 5)", "assay_type": "cell-based, E. coli, K. pneumoniae, Enterobacter cloacae", "conditions": "all evaluated Enterobacteriaceae isolates (Table 3)", "procedure": "Test and Comparator Agents: The test agents were stored at room temperature until assayed. All test agents were suspended and diluted in 100% dimethylsulfoxide (DMSO), and were ultimately tested at a final concentration of 0.06-64 μg/mL. The stock solutions were allowed to stand for at least 1 hr prior to use to auto-sterilize.\nTestMedia: Test media were prepared and stored in accordance with guidelines from CLSI (4, 6, 7). […] Neisseria gonorrhoeae were evaluated by agar dilution using agar consisting of GC medium base (BD; Lot No. 4274618) supplemented with 1% IsoVitaleX (BD; Lot No. 5246843).\nBroth Microdilution MC Testing (Aerobic Bacteria and Yeast): The broth microdilution assay method employed for the susceptibility testing of aerobic bacteria (excluding N. gonorrhoeae which was evaluated by agar dilution) and yeast essentially followed the procedures described by CLSI (3, 4, 7, 8) and employed automated liquid handlers to conduct serial dilutions and liquid transfers. […]\nas §8"}, "MDR P. aeruginosa": {"test_system": "MDR P. aeruginosa", "test": "MIC against CF isolates (Example 7, Table 18)", "assay_type": "cell-based", "conditions": "Pseudomonas aeruginosa, Multi-drug resistant"}, "Achromobacter spp.": {"test_system": "Achromobacter spp.", "test": "MIC against CF isolates (Example 7, Table 18)", "assay_type": "cell-based", "conditions": "strain AX4, A. xylosoxidans"}, "E. coli ATCC 25922": {"test_system": "E. coli ATCC 25922", "conditions": "per CLSI M100-S24 or provided by Microbion; cited from earlier work"}, "[1]": {"test_system": "MABSC / M. abscessus biofilms", "test": "Activity against biofilms (Example 7)", "assay_type": "cell-based, Mycobacterium abscessus complex", "conditions": "AMT0130-8 MABSC CF-isolate"}}, "note": "Read-outs that look alike come from different tables or passages of the source.", "data": [{"smiles": "OCC(S)CS.[Bi]", "note": "(stereo not drawn) [MB-2B, bismuth-2,3-dimercaptopropanol]", "values": [{"measurement": "MIC", "setting": "E. coli; ATCC25922, E. coli MMX 102 (ATCC 25922), QC, read-out: MIC", "result": 2, "unit": "µg/mL"}, {"measurement": "MIC", "setting": "E. coli; ATCCBAA2469, E. coli MMX 5980 (ATCC BAA-2469), NDM-1", "result": 2, "unit": "µg/mL"}, {"measurement": "MIC", "setting": "E. coli; E. coli MMX 8423, ESBL, LevR CAZR GmR, read-out: MIC", "result": 2, "unit": "µg/mL"}, {"measurement": "MIC", "setting": "E. coli; E. coli MMX 8424, ESBL, CAZR, read-out: MIC", "result": 4, "unit": "µg/mL"}, {"measurement": "MIC", "setting": "E. coli; E. coli MMX 8425, ESBL, LevR CAZR GmR, read-out: MIC", "result": 2, "unit": "µg/mL"}, {"measurement": "MIC", "setting": "K. pneumoniae; K. pneumoniae MMX 4622, KPC-2", "result": 16, "unit": "µg/mL"}, {"measurement": "MIC", "setting": "K. pneumoniae; K. pneumoniae MMX 4623, KPC-2", "result": 32, "unit": "µg/mL"}, {"measurement": "MIC", "setting": "K. pneumoniae; K. pneumoniae MMX 4653, KPC-3", "result": 16, "unit": "µg/mL"}, {"measurement": "MIC", "setting": "K. pneumoniae; K. pneumoniae MMX 4683, KPC-2", "result": 8, "unit": "µg/mL"}, {"measurement": "MIC", "setting": "K. pneumoniae; K. pneumoniae MMX 4684, ESBL, read-out: MIC", "result": 32, "unit": "µg/mL"}, {"measurement": "MIC", "setting": "K. pneumoniae; K. pneumoniae MMX 4685, ESBL, read-out: MIC", "result": 8, "unit": "µg/mL"}, {"measurement": "MIC", "setting": "K. pneumoniae; K. pneumoniae MMX 4694, KPC-3", "result": 8, "unit": "µg/mL"}, {"measurement": "MIC", "setting": "K. pneumoniae; K. pneumoniae MMX 5979, NDM-1", "result": 16, "unit": "µg/mL"}, {"measurement": "MIC", "setting": "E. cloacae", "result": 32, "unit": "µg/mL"}, {"measurement": "MIC", "setting": "S. agalactiae; S. agalactiae MMX 3741, ERYR CCR", "result": 4, "unit": "µg/mL"}, {"measurement": "MIC", "setting": "S. agalactiae; S. agalactiae MMX 3743, ERYR CCR", "result": 4, "unit": "µg/mL"}, {"measurement": "MIC", "setting": "S. agalactiae; S. agalactiae MMX 4077, ERYR CCR", "result": 4, "unit": "µg/mL"}, {"measurement": "MIC", "setting": "S. agalactiae; S. agalactiae MMX 4079, ERYR CCR PenR MEMR", "result": 8, "unit": "µg/mL"}, {"measurement": "MIC", "setting": "S. pyogenes; S. pyogenes MMX 3068, EryR", "result": 2, "unit": "µg/mL"}, {"measurement": "MIC", "setting": "S. pyogenes; S. pyogenes MMX 3820, ERYR CLIR", "result": 1, "unit": "µg/mL"}, {"measurement": "MIC", "setting": "S. pyogenes; S. pyogenes MMX 3919, ERYR", "result": 0.25, "unit": "µg/mL"}, {"measurement": "MIC", "setting": "S. pyogenes; S. pyogenes MMX 3929, ERYR CCR", "result": 1, "unit": "µg/mL"}, {"measurement": "MIC", "setting": "S. pyogenes; S. pyogenes MMX 5091, ERYR CCR", "result": 1, "unit": "µg/mL"}, {"measurement": "MIC", "setting": "Enterobacteriaceae", "result": "2 to 32", "unit": "µg/mL"}]}, {"smiles": "NCC[C@H](O)C(=O)N[C@@H]1C[C@H](N)[C@@H](O[C@H]2O[C@H](CN)[C@@H](O)[C@H](O)[C@H]2O)[C@H](O)[C@H]1O[C@H]1O[C@H](CO)[C@@H](O)[C@H](N)[C@H]1O", "note": "[Amikacin]", "values": [{"measurement": "MIC", "setting": "MDR P. aeruginosa; strain AGR14, P. aeruginosa", "result": "> 64", "unit": "µg/mL"}, {"measurement": "MIC", "setting": "MDR P. aeruginosa; strain MR14, P. aeruginosa", "result": "> 64", "unit": "µg/mL"}, {"measurement": "MIC", "setting": "Achromobacter spp.", "result": "> 64", "unit": "µg/mL"}, {"measurement": "MIC, acceptable range", "setting": "E. coli ATCC 25922", "result": "0.5 to 4", "unit": "µg/mL"}, {"measurement": "MIC, expected results", "setting": "E. coli ATCC 25922", "result": "1 to 2", "unit": "µg/mL"}]}, {"smiles": "CC(S)C(C)S.[Bi]", "note": "(stereo not drawn) [MB-6, bismuth-2,3-butanedithiol]", "values": [{"measurement": "Reductions in biofilm cell viability", "setting": "[1]", "result": "only very modest reductions"}]}]}
